Where “and” joins values, the source holds several entries; their conditions need not be identical. Equal values may be shown once. Where a name gives a salt, the structure may show the parent alone. Read-outs that look alike come from different tables or passages of the source.
How the values were obtained:
[1] = In vitro solubility assessment; type: physicochemical
[2] = Phase 1 drug–drug interaction study: plasma PK of quizartinib, AC886 and quizartinib + AC886 after a single 30-mg quizartinib tablet alone or with lansoprazole; type: in vivo, human; conditions: for Vd/F: read-out: Vz/F (CV%), geometric mean; for CL/F (CV%), geometric mean: quizartinib
Experimental: The tolerability and safety of quizartinib administered alone and in combination with lansoprazole were also assessed. The study was conducted in compliance with the Declaration of Helsinki and the International Conference on Harmonisation (ICH)/Good Clinical Practice as well as all applicable state, local, and federal regulations. The study protocol, amendments, and informed consent forms were reviewed and approved by the institutional review board. All subjects provided written informed consent before any study-related procedure took place.
Subjects were randomized into two groups: lansoprazole and quizartinib (lansoprazole + quizartinib; test group) and quizartinib alone (reference group). On days 1–5, subjects in the test group were administered 60-mg lansoprazole (2 × 30 mg oral delayed-released capsule) once daily in the morning before food. […] All study drugs were taken with approximately 240 mL of water.
Plasma concentrations were determined by BASi (West Lafayette, IN, USA) using a validated analytical method.
Samples were injected into an LC–MS/MS system (LC: Nexera System, Shimadzu Scientific Instruments, Columbia, MD, USA; MS: API 5500™, SCIEX, Framingham, MA, USA) using a PFP column (Phenomenex/Kinetex, Torrance, CA, USA) with a gradient ammonium formate/formic acid/acetonitrile/water mobile phase. […] For AC886 at the LLOQ, precision was 6.0% CV and accuracy was 0.2% bias across 14 runs; accuracy ranged from −7.9 to 10.6% bias within runs. For AC886 at the upper limit of quantitation, precision was 2.9% CV and accuracy was −1.4% bias across 14 runs; accuracy ranged from −6.4 to 4.6% bias within runs.
A sample size of 25 subjects per group was determined to yield a ≤ 10% relative standard error of the mean, based on the observed intersubject coefficient of variation (CV%) of approximately 60% for PK parameters in a previous drug–drug interaction study in healthy volunteers (data on file, Daiichi Sankyo, Inc., Basking Ridge, NJ, USA). Up to 32 subjects/group were planned to account for possible premature withdrawal. Descriptive statistics were used to summarize plasma concentrations and PK parameters of the PK analysis population. Safety parameters were summarized in the safety analysis population using descriptive statistics. All descriptive statistics were calculated using SAS® software version 9.3 (SAS Institute Inc., Cary, NC, USA). […] PK parameters were natural logarithm (ln)-transformed prior to analyses. The ln-transformed PK results were back-transformed by exponentiation to obtain the geometric least squares mean (LSM) for each treatment and calculate geometric LSM ratios for pairwise comparisons.

[3] = Safety: treatment-emergent adverse events, vital signs and laboratory tests in the phase 1 study; type: in vivo, human
Experimental: The safety analysis population consisted of all randomized subjects who received quizartinib or at least one dose of lansoprazole. Safety was assessed with physical examinations, vital signs, AE evaluations, 12-lead electrocardiograms (ECGs), and clinical laboratory tests (hematology, chemistry, and urinalysis). AEs were evaluated during the study according to the Medical Dictionary for Regulatory Activities version 17.1 and assessed for severity and relation to study drugs. Laboratory results were summarized based on National Cancer Institute Common Terminology Criteria for Adverse Events version 4.03.

[4] = by treatment group
[5] = cited from earlier work
gastric acid secretion = tested on: gastric acid secretion; design: method as in earlier work; conditions: cited from earlier work
[6] = healthy subjects, single 30-mg quizartinib
[7] = quizartinib in plasma, single 30-mg quizartinib alone, n = 30
[8] = all patients, quizartinib with/without lansoprazole, N = 63
[9] = all subjects, quizartinib with or without lansoprazole
[10] = by treatment group, safety population
[11] = day 5, up to 8 h after quizartinib

CC(C)(C)c1cc(NC(=O)Nc2ccc(-c3cn4c(n3)sc3cc(OCCN5CCOCC5)ccc34)cc2)no1 [quizartinib dihydrochloride]
pH dependence of solubility [1]: pH dependent
solubility ([1]; at physiological pH in the intestine): < 0.4 µg/mL

CC(C)(C)c1cc(NC(=O)Nc2ccc(-c3cn4c(n3)sc3cc(OCCN5CCOCC5)ccc34)cc2)no1 [Quizartinib, quizartinib]
Decrease in AUCinf (geometric LSM) for lansoprazole + quizartinib versus quizartinib alone [2, 6]: 4.7%
Decrease in AUClast (geometric LSM) for lansoprazole + quizartinib versus quizartinib alone [2, 6]: 6.0%
Decrease in Cmax (geometric LSM) for lansoprazole + quizartinib versus quizartinib alone [2, 6]: 13.9%
AUC(0-inf) ([2]; human, plasma, oral, 30 mg, quizartinib in plasma, quizartinib alone, n = 30, read-out: AUCinf, geometric LS mean (ANOVA)): 8660 ng·h/mL
AUC(0-t) ([2]; human, plasma, oral, 30 mg, quizartinib in plasma, quizartinib alone, n = 30, read-out: AUClast, geometric LS mean (ANOVA)): 8330 ng·h/mL
AUC(0-inf) ([2]; human, plasma, oral, 30 mg, quizartinib in plasma, single 30-mg quizartinib alone, n = 30, read-out: AUCinf (CV%), geometric mean): 8660 ng·h/mL
AUC(0-t) ([2]; human, plasma, oral, 30 mg, quizartinib in plasma, single 30-mg quizartinib alone, n = 30, read-out: AUClast (CV%), geometric mean): 8330 ng·h/mL
Vd/F ([2]; human, plasma, oral, 30 mg): 431 L
AUC(0-inf) ([2]; human, plasma, oral, quizartinib in plasma, lansoprazole 60 mg once daily + single 30-mg quizartinib, n = 31, read-out: AUCinf (CV%), geometric mean): 8260 ng·h/mL
AUC(0-t) ([2]; human, plasma, oral, quizartinib in plasma, lansoprazole 60 mg once daily + single 30-mg quizartinib, n = 32, read-out: AUClast (CV%), geometric mean): 7830 ng·h/mL
AUC(0-inf) ([2]; human, plasma, oral, quizartinib in plasma, lansoprazole + quizartinib, n = 31, read-out: AUCinf, geometric LS mean (ANOVA)): 8260 ng·h/mL
AUC(0-t) ([2]; human, plasma, oral, quizartinib in plasma, lansoprazole + quizartinib, n = 32, read-out: AUClast, geometric LS mean (ANOVA)): 7830 ng·h/mL
half-life ([2]; human, plasma, oral, read-out: Mean T1/2 (SD), arithmetic mean (converted)): 107 h
Tmax ([2]; human, plasma, oral, read-out: Median Tmax (min, max)): 3.5 h
Vd/F ([2]; human, plasma, oral): 479 L
Median Tmax (min, max) ([2]; quizartinib in plasma, healthy subjects, single 30-mg quizartinib tablet alone, fasted, n = 30): 4.0 (2.0, 8.0) h
Cmax, geometric LS mean (ANOVA) ([2]; quizartinib in plasma, quizartinib alone, n = 30): 104.8 ng/mL
Cmax (CV%), geometric mean [2, 7]: 105 (16.3) ng/mL
Mean T1/2 (SD), arithmetic mean [2, 7]: 102.2 (29.0) h
CL/F (CV%), geometric mean ([2]; lansoprazole 60 mg once daily + single 30-mg quizartinib, n = 31): 3.2 L/h and 3.2 (46.4)^b L/h
CL/F (CV%), geometric mean ([2]; single 30-mg quizartinib alone, n = 30): 3.1 L/h and 3.1 (37.4) L/h
TEAE: Back pain [3, 8]: 2 (3.2) n (%)
TEAE: Constipation [3, 8]: 2 (3.2) n (%)
TEAE: Dermatitis [3, 8]: 1 (1.6) n (%)
TEAE: Diarrhea [3, 8]: 1 (1.6) n (%)
TEAE: Dizziness [3, 8]: 1 (1.6) n (%)
TEAE: Fatigue [3, 8]: 2 (3.2) n (%)
TEAE: Headache [3, 8]: 3 (4.8) n (%)
TEAE: Hypoacusis [3, 8]: 1 (1.6) n (%)
TEAE: Hypoesthesia [3, 8]: 1 (1.6) n (%)
TEAE: Muscle tightness [3, 8]: 2 (3.2) n (%)
TEAE: Musculoskeletal pain [3, 8]: 1 (1.6) n (%)
TEAE: Musculoskeletal stiffness [3, 8]: 1 (1.6) n (%)
TEAE: Nasal congestion [3, 8]: 1 (1.6) n (%)
TEAE: Nausea [3, 8]: 2 (3.2) n (%)
TEAE: Phlebotomy [3, 8]: 1 (1.6) n (%)
TEAE: Sneezing [3, 8]: 1 (1.6) n (%)
TEAE: Throat irritation [3, 8]: 1 (1.6) n (%)
TEAE: Upper respiratory tract infection [3, 8]: 5 (7.9) n (%)
TEAE: Vessel puncture site pain [3, 8]: 1 (1.6) n (%)
Abnormalities in vital signs, hematology, or clinical chemistry [3, 9]: No significant abnormalities
Severe or serious TEAEs [3, 9]: no severe or serious TEAEs
Subjects with TEAEs of mild severity among the 20 subjects who experienced a TEAE [3, 9]: 95%
Subjects with at least one quizartinib-related TEAE (nausea, diarrhea, dizziness, headache, fatigue) [3, 9]: Three
Subjects with at least one treatment-emergent AE (TEAE) following quizartinib treatment on day 5 ([3]; all subjects, quizartinib with or without lansoprazole, N = 63): 31.7%
TEAE: Back pain [3, 10]: 1 (3.3) n (%)
TEAE: Constipation [3, 10]: 1 (3.3) n (%)
TEAE: Dermatitis [3, 10]: 0 n (%)
TEAE: Diarrhea [3, 10]: 1 (3.3) n (%)
TEAE: Dizziness [3, 10]: 0 n (%)
TEAE: Fatigue [3, 10]: 1 (3.3) n (%)
TEAE: Headache [3, 10]: 3 (10.0) n (%)
TEAE: Hypoacusis [3, 10]: 0 n (%)
TEAE: Hypoesthesia [3, 10]: 0 n (%)
TEAE: Muscle tightness [3, 10]: 2 (6.7) n (%)
TEAE: Musculoskeletal pain [3, 10]: 1 (3.3) n (%)
TEAE: Musculoskeletal stiffness [3, 10]: 1 (3.3) n (%)
TEAE: Nasal congestion [3, 10]: 1 (3.3) n (%)
TEAE: Nausea [3, 10]: 1 (3.3) n (%)
TEAE: Phlebotomy [3, 10]: 0 n (%)
TEAE: Sneezing [3, 10]: 1 (3.3) n (%)
TEAE: Throat irritation [3, 10]: 1 (3.3) n (%)
TEAE: Upper respiratory tract infection [3, 10]: 2 (6.7) n (%)
TEAE: Vessel puncture site pain [3, 10]: 0 n (%)
TEAE: Dysmenorrhea ([3]; by treatment group, safety population, after database lock one event was found to be pre-existing): 1 (3.3) n (%)
Subjects with at least one treatment-emergent AE (TEAE) following quizartinib treatment on day 5 ([3]; by treatment group, quizartinib alone n = 30, lansoprazole + quizartinib n = 33): 30.0%
Overall safety and tolerability ([3]; healthy subjects, with or without lansoprazole): generally safe and well tolerated
Subjects with maximum QTcF value > 480 ms [4]: None
Maximum QTcF change from baseline in most subjects [4, 11]: ≤ 30 ms
Maximum QTcF value in most subjects [4, 11]: ≤ 450 ms
half-life ([5]; estimated in AML patients, ref data on file, Daiichi Sankyo Inc., Basking Ridge, NJ, USA): 73 h
Time to maximum concentrations ([5]; healthy subjects and patients with AML, range 2–8 h): 4 h

Cc1c(OCC(F)(F)F)ccnc1C[S+]([O-])c1nc2ccccc2[nH]1 (centres unmarked) [Lansoprazole, lansoprazole]
Duration of inhibitory effect on gastric acid secretion (gastric acid secretion): over 24 h
Elimination half-life (gastric acid secretion): less than 2 h
Mean 24-h intragastric pH (gastric acid secretion; lansoprazole 30 mg once daily for 5 days, baseline 2.1): 4.9

From paper PMC6768889 (Cancer Chemotherapy and Pharmacology, 2019)
